{
  "source": "patent US9689040B2",
  "about": "“Selective inhibitors of tumor-initiating cells” (Children's Medical Center Corporation, priority 2011, dated 2017)",
  "key": {"[1]": {"system": "TGS transcripts", "conditions": "Instance ID 6709, cited from earlier work"}, "[2]": {"system": "BPE cells"}, "[3]": {"system": "BPLER cells", "assay": "Cell viability after drug treatment (CellTiterGlo / Trypan-Blue)", "type": "cell-based, human", "conditions": "increasing doses, 24 hr"}, "[4]": {"system": "HMLER cells", "assay": "qRT-PCR of TGS transcripts after TSA treatment", "type": "cell-based, human", "conditions": "1 μM TSA, 24 hr", "experimental": "(§1) The CMAP data predicted that TSA would suppress expression of 52 TGS transcripts by ≧1.8-fold (Table 6). We measured the change in expression of the top 11 of these transcripts in BPLER and HMLER cells treated with TSA.\n(§2) qRT-PCR analysis was performed as described^41. Briefly, total RNA was extracted with TRIZOL (Invitrogen) and cDNA prepared from 600-900 ng total RNA using TH[…] kit (Invitrogen) as per the manufacturer's instructions. 2.5 ul of diluted cDNA (1:20) was used as template for qPCR using POWER SYBR-GREEN MASTER MIX (Applied Biosystems) and BIORAD C1000 THERMAL CYCLER (Biorad). Primer sequences are available upon request. Relative CT values were normalized to […]-actin and converted to a linear scale using the −ΔCT method."}, "[5]": {"system": "BPLER cells", "assay": "qRT-PCR of TGS transcripts after TSA treatment", "type": "cell-based, human", "conditions": "1 μM TSA, 24 hr", "experimental": "as §1, §2"}},
  "note": "Like-named read-outs stand apart in the source and are kept apart here.",
  "data": [
    {"smiles": "CC(/C=C/C(=O)NO)=C\\[C@@H](C)C(=O)c1ccc(N(C)C)cc1", "note": "[TSA, Trichostatin A]", "values": [
      {"measurement": "Amplitude", "setting": "[1]; BUB1, probe set 215509_s_at", "result": "−0.84"},
      {"measurement": "Amplitude", "setting": "[1]; C7orf25 /// PSMA2, probe set 221573_at", "result": "−0.7"},
      {"measurement": "Amplitude", "setting": "[1]; C12orf10, probe set 218220_at", "result": "−0.5"},
      {"measurement": "Amplitude", "setting": "[1]; C19orf29, probe set 215954_s_at", "result": "−0.49"},
      {"measurement": "Amplitude", "setting": "[1]; CANX, probe set 208852_s_at", "result": "−0.55"},
      {"measurement": "Amplitude", "setting": "[1]; CANX, probe set 208853_s_at", "result": "−0.81"},
      {"measurement": "Amplitude", "setting": "[1]; CCNA2, probe set 203418_at", "result": "−0.83"},
      {"measurement": "Amplitude", "setting": "[1]; CCNA2, probe set 213226_at", "result": "−0.63"},
      {"measurement": "Amplitude", "setting": "[1]; CDC5L, probe set 209055_s_at", "result": "−1.19"},
      {"measurement": "Amplitude", "setting": "[1]; CDK13, probe set 207318_s_at", "result": "−0.87"},
      {"measurement": "Amplitude", "setting": "[1]; CDK13, probe set 207319_s_at", "result": "−0.79"},
      {"measurement": "Amplitude", "setting": "[1]; CDK17, probe set 206474_at", "result": "−0.74"},
      {"measurement": "Amplitude", "setting": "[1]; CDK17, probe set 221918_at", "result": "−0.66"},
      {"measurement": "Amplitude", "setting": "[1]; DDX19A /// DDX19B, probe set 202576_s_at", "result": "−0.73"},
      {"measurement": "Amplitude", "setting": "[1]; DHX8, probe set 203334_at", "result": "−0.45"},
      {"measurement": "Amplitude", "setting": "[1]; DNAJC11, probe set 215792_s_at", "result": "−0.47"},
      {"measurement": "Amplitude", "setting": "[1]; DYSF, probe set 218660_at", "result": "−0.43"},
      {"measurement": "Amplitude", "setting": "[1]; FYCO1, probe set 218204_s_at", "result": "−0.5"},
      {"measurement": "Amplitude", "setting": "[1]; GAPDH, probe set AFFX-HUMGAPDH/M33197_5_at", "result": "−1.17"},
      {"measurement": "Amplitude", "setting": "[1]; GAPDH, probe set AFFX-HUMGAPDH/M33197_M_at", "result": "−0.62"},
      {"measurement": "Amplitude", "setting": "[1]; HIPK3, probe set 210148_at", "result": "−0.46"},
      {"measurement": "Amplitude", "setting": "[1]; LSM2, probe set 209449_at", "result": "−0.44"},
      {"measurement": "Amplitude", "setting": "[1]; MCL1, probe set 200796_s_at", "result": "−1.46"},
      {"measurement": "Amplitude", "setting": "[1]; MFSD5, probe set 212861_at", "result": "−0.77"},
      {"measurement": "Amplitude", "setting": "[1]; MGAT2, probe set 203101_s_at", "result": "−0.67"},
      {"measurement": "Amplitude", "setting": "[1]; MTA2, probe set 203444_s_at", "result": "−0.74"},
      {"measurement": "Amplitude", "setting": "[1]; NAA38, probe set 219119_at", "result": "−0.47"},
      {"measurement": "Amplitude", "setting": "[1]; NDC80, probe set 204162_at", "result": "−1.07"},
      {"measurement": "Amplitude", "setting": "[1]; NME3, probe set 204862_s_at", "result": "−0.6"},
      {"measurement": "Amplitude", "setting": "[1]; NUP205, probe set 212247_at", "result": "−0.65"},
      {"measurement": "Amplitude", "setting": "[1]; PDCD4, probe set 202731_at", "result": "−1.07"},
      {"measurement": "Amplitude", "setting": "[1]; PFKL, probe set 201102_s_at", "result": "−0.67"},
      {"measurement": "Amplitude", "setting": "[1]; POLR2F, probe set 209511_at", "result": "−0.43"},
      {"measurement": "Amplitude", "setting": "[1]; PRC1, probe set 218009_s_at", "result": "−0.67"},
      {"measurement": "Amplitude", "setting": "[1]; PSMA1, probe set 201676_x_at", "result": "−0.4"},
      {"measurement": "Amplitude", "setting": "[1]; PSMA1, probe set 210759_s_at", "result": "−0.74"},
      {"measurement": "Amplitude", "setting": "[1]; PSMA1, probe set 211746_x_at", "result": "−0.45"},
      {"measurement": "Amplitude", "setting": "[1]; PSMA2, probe set 201317_s_at", "result": "−0.41"},
      {"measurement": "Amplitude", "setting": "[1]; PSMA3, probe set 201532_at", "result": "−0.63"},
      {"measurement": "Amplitude", "setting": "[1]; PSMB4, probe set 202243_s_at", "result": "−0.43"},
      {"measurement": "Amplitude", "setting": "[1]; PSMC1, probe set 204219_s_at", "result": "−0.53"},
      {"measurement": "Amplitude", "setting": "[1]; PSMC3, probe set 201267_s_at", "result": "−1.66"},
      {"measurement": "Amplitude", "setting": "[1]; PSMD7, probe set 201705_at", "result": "−1.01"},
      {"measurement": "Amplitude", "setting": "[1]; RAN, probe set 200750_s_at", "result": "−0.48"},
      {"measurement": "Amplitude", "setting": "[1]; RBM22, probe set 218134_s_at", "result": "−0.75"},
      {"measurement": "Amplitude", "setting": "[1]; RBMX, probe set 213762_x_at", "result": "−0.58"},
      {"measurement": "Amplitude", "setting": "[1]; SCD, probe set 211162_x_at", "result": "−0.92"},
      {"measurement": "Amplitude", "setting": "[1]; SCD, probe set 211708_s_at", "result": "−0.83"},
      {"measurement": "Amplitude", "setting": "[1]; SH3GL3, probe set 211565_at", "result": "−0.64"},
      {"measurement": "Amplitude", "setting": "[1]; SNW1, probe set 215424_s_at", "result": "−1.16"},
      {"measurement": "Amplitude", "setting": "[1]; TMED3, probe set 208837_at", "result": "−0.42"},
      {"measurement": "Amplitude", "setting": "[1]; TMEM14B, probe set 221452_s_at", "result": "−0.48"},
      {"measurement": "Amplitude", "setting": "[1]; TNPO1, probe set 207657_x_at", "result": "−0.42"},
      {"measurement": "Amplitude", "setting": "[1]; TNPO1, probe set 209226_s_at", "result": "−0.68"},
      {"measurement": "Amplitude", "setting": "[1]; USP39, probe set 217829_s_at", "result": "−0.56"},
      {"measurement": "Amplitude", "setting": "[1]; probe set 200749_at (gene symbol —)", "result": "−0.5"},
      {"measurement": "BPE viability", "setting": "[2]; at the indicated dose", "result": "no effect on BPE viability"},
      {"measurement": "combination with bortezomib: cytotoxicity in untransformed BPE cells", "setting": "[2]; in vitro", "result": "not cytotoxic"},
      {"measurement": "sensitivity of BPLER relative to HMLER cells (viability)", "setting": "[3]", "result": "selectively lethal for BPLER compared to HMLER"},
      {"measurement": "expression of the top 11 predicted TGS transcripts", "setting": "[4]", "result": "All but two of these also had significantly reduced expression"},
      {"measurement": "expression of the top 11 predicted TGS transcripts", "setting": "[5]", "result": "significantly decreased"}
    ]}
  ]
}
